Patent US7365096B2, “Methods for selectively inhibiting Janus tyrosine kinase 3 (Jak3)” (Board of Regents, The University of Texas System, priority 2002, dated 2008)
Entries after “also recorded” stand apart in the source; their conditions may differ.

Legend:
NF-kB = test: TNF-α-induced NF-kB DNA binding, EMSA; type: cell-based, human; settings: same treatment set
Protocol: EMSA. Electrophoretic mobility shift assay (EMSA). Drug or vehicle control (DMSO) treated cells were pelleted by centrifugation (20,000×g for 1 min at 4° C.) and subsequently washed in five volumes of 10 mM HEPES, pH 7.9, 10 mM KCl, 1.5 mM MgCl2, 0.5 mM DTT, […], 5 μg/ml aprotinin, 1 μg/ml pepstatin A and 2 μg/ml leupeptin, centrifuged, then lysed in the same buffer supplemented with 1% NP-40 and incubated for 20 min on ice. The nuclei-containing pellet was resuspended in equal volumes of low salt buffer (10 mM HEPES, 25% glycerol, 1.5 mM MgCl2, 20 mM KCl, 0.5 mM DTT, 0.2 mM EDTA and protease inhibitors) and high salt buffer (low salt buffer containing 800 mM KCl). This fraction was then isolated by centrifugation at 4° C. for 10 min and supernatants saved as nuclear protein extract and stored at −70° C. Gel mobility shift assays were performed to detect Stat5a/b DNA binding activity using a Stat5 DNA binding sequence corresponding to the promoter of the β-casein gene (5′-[…]-3′) or an NF-kB binding element (5′-[…]-3′). Both probes were end-labeled with [^32P]dATP. […]
In FIG. 9A, it can be seen that NC1153 inhibits Jak3 driven transcription factor-Stat5a/b in PHA activated T-cells treated with increasing concentrations of NC1153 in a dose dependent manner as measured via EMSA analysis (upper panel). […]

[1] = system: LEW or third-party heart allografts; test: Adoptive transfer of T cells from tolerant recipients into irradiated ACI heart allograft recipients; type: in vivo, rat
Protocol: ACI rat recipients of LEW kidney allografts were treated for 14 days with NC1153 delivered by daily oral gavage. […] ACI rat recipients of LEW kidney allografts were treated for 7 days and thereafter 3×/week up to 90 days with 160 mg/kg NC1153 delivered by daily oral gavage. […] The mechanism of tolerance was examined when irradiated (400 rads) ACI recipients of LEW heart allografts were adoptively transferred with 30×10^6 purified T cells from tolerant recipients.

[2] = rat, in vivo
Jak3 = target: T1, Jak3 (Homo sapiens, UniProt P52333); test: Jak3 autokinase activity of immunopurified Jak3 (phosphotyrosine Western blot); type: biochemical; set-up: immunopurified Jak3 was assayed for Jak3 autokinase activity and tested by phosphotyrosine Western blot; endogenous in cells
T1 sequence (P52333 1-1124): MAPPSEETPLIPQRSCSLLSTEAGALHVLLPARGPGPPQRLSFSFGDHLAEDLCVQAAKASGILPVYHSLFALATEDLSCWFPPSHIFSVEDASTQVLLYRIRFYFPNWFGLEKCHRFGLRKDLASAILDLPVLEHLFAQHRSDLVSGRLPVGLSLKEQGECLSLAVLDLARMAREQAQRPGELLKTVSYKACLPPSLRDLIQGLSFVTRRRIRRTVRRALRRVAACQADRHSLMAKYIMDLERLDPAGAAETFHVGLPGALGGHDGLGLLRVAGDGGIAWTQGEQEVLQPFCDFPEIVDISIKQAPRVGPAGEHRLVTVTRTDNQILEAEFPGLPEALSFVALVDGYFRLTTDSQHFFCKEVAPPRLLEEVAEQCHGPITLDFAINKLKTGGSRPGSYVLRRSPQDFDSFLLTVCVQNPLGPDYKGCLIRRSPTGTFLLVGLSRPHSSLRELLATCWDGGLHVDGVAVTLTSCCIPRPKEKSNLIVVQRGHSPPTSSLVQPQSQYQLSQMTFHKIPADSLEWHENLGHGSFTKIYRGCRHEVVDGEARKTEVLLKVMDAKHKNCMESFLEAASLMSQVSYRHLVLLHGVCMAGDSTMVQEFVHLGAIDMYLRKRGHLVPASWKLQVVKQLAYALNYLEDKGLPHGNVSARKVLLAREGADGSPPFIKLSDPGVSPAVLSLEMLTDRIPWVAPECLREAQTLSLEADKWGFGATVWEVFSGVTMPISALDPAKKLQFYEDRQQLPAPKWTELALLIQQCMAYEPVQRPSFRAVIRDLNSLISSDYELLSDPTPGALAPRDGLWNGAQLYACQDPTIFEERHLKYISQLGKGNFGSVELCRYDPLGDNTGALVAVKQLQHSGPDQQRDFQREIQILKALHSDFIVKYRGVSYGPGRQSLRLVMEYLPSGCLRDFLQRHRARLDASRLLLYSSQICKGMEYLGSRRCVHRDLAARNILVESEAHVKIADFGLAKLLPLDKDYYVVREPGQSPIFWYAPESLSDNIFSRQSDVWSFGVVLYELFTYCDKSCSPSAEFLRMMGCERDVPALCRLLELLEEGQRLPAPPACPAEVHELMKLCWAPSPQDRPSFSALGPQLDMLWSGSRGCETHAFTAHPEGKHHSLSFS
Protocol: Immunopurified Jak3 was assayed for Jak3 autokinase activity and tested by phosphotyrosine Western blot in the absence or presence of 100 μM ATP and/or drug and compared to controls.
Referring now to FIG. 8, direct evidence is provided that […] (NC1153) inhibits Jak3 signaling pathways. […] The bands identified as “PY-Jak3” reveal only the active Jak3 at the indicated dosages of NC1153, with or without IL-2 and ATP.

Question: What does the source list for CN(C)CC1CCCCCCCCCC(CN(C)C)C1=O (mixture of isomers) [649641P (NC1153)]?
Answer: NF-kB activation / DNA binding by TNF-α (EMSA) (NF-kB): not affected; also recorded: no effect; NF-kB activation / DNA binding by TNF-α (EMSA) (NF-kB; listed as NC1153): not affected; rejection of LEW heart allografts after transfer of tolerant T cells ([1]; irradiated (400 rads) ACI recipients, 30×10^6 T cells from NC1153-tolerant recipients, irradiated controls 15±1.0): 40.0±15.0 days; rejection of third-party heart allografts after transfer of tolerant T cells ([1]; irradiated ACI recipients, T cells from NC1153-tolerant recipients, n=2): 12±1.0 days; HDL [2]: increased HDL; HDL, LDL, or TG levels [2]: no effect; TG or LDL levels [2]: without changing TG or LDL levels; overall toxicity conclusion [2]: free of nephrotoxic and myelotoxic effects with mild lipotoxicity on high-fat challenge; peripheral blood counts (PBC) [2]: Neither 648641P nor CsA reduced PBC; IC50 (Jak3; 100 μM ATP): ~2.5 µM; inhibition of Jak3 relative to Jak2 in kinase assays (Jak3; FIG. 9B and FIG. 8): At least 50 fold
